# Results: article PMC5556071, “ATR inhibition facilitates targeting of leukemia dependence on convergent nucleotide biosynthetic pathways” (Nature Communications, 2017)
# Several values for one entry are separate records, joined by “and”; a condition that tells them apart may be missing. Equal entries are not always repeated.
# Tested on: CEM cells
# Assay: Non-targeted LC-MS metabolite profiling: percent [13C6]glucose labeling and relative metabolite levels
# Format: cell-based, human
# Conditions: CEM cells, 12 h following release from G1 arrest, replicates #1-#6
# Description: To further investigate the functions of dCK and ATR at the G1/S transition in CEM cells, a non-targeted liquid chromatography mass spectrometry (LC-MS) assay was used to determine the utilization of labeled [^13C6]glucose and [^13C9,^15N3]deoxycytidine, the main substrates for de novo and salvage nucleotide biosynthesis, respectively. Of the 166 metabolites identified in CEM cells treated with VE-822 and/or dCKi, 105 metabolites found in all four treatment groups contained glucose-derived ^13C atoms. […] These metabolites included intermediates such as rUTP, rCTP and rCDP in the de novo dCTP biosynthesis (Fig. 1d). […] However, several deoxyribonucleotides, including dCTP, were below the limit of detection of the non-targeted LC-MS approach, raising the concern that the sensitivity of this assay is not sufficient to measure the contribution of the salvage pathway or the ratio of de novo and salvage biosynthesis to these pools. To address this problem, a newly developed targeted MS assay was developed (Fig. 1e and Supplementary Fig. 3). In this assay, samples containing either extracted dNTPs or hydrolyzed DNA from labeled cells are separated by LC for detection by a triple quadrupole mass spectrometer using multiple reaction monitoring (LC-MS/MS-MRM). The first (Q1) and third (Q3) quadrupoles function as mass filters, while the second (Q2) quadrupole serves as a collision chamber (Fig. 1e). For instance, to profile the biosynthetic composition of deoxycytidine (dC) derived from hydrolyzed DNA or dCTP, an intact, protonated dC ion is selected in Q1, followed by fragmentation of the glycosidic bond, which releases protonated cytosine in Q2, that is filtered in Q3 and detected to generate an ion chromatogram. The peak areas for the ion chromatograms of salvage [^13C9,^15N3]dC (red trace), de novo [^13C5]dC (black trace, from [^13C6]glucose) and unlabeled dC (gray trace) (Fig. 1e) are used to determine the relative contributions of the de novo and salvage routes both to dCTP pools and to DNA-incorporated dCTP.
# Cells were transferred into RPMI-1640 without glucose and supplemented with 10% dialyzed FBS (Gibco) containing the following labeled substrates: precursors for de novo [U-^13C6]glucose (Sigma-Aldrich, 389374) at 11 mM; precursors for purine salvage [U-^13C10,^15N5]dA (Cambridge Isotopes, CIL 3896), [^15N5]dA (Cambridge Isotopes, NLM-3895) and [^15N5]dG (Cambridge Isotopes, NLM-3899) at 5 µM or as indicated; and precursors for pyrimidine salvage: [U-^13C9,^15N3]dC (Silantes, 124603602) and [U-^13C10,^15N2]dT (Cambridge Isotopes, CNLM-3902) at 5 µM and [^15N2]orotate (Cambridge Isotopes, NLM-1048) at indicated concentrations. The cells were incubated for 12 h or as indicated before sample collection and processing. […]
# Non-targeted LC-MS metabolic assays. 1 x 10^6 cells were washed with ice-cold 150 mM ammonium acetate twice before adding 1 mL of ice-cold 80% methanol with 10 nM norvaline as an internal standard. After vigorous vortexing, samples were centrifuged at maximum speed, the aqueous layer was transferred to a glass vial and the metabolites were dried under vacuum. Metabolites were resuspended in 50 μL 70% acetonitrile (ACN) and 5 μL of this solution used for the mass spectrometer-based analysis. The analysis was performed on a Q Exactive (Thermo Scientific) in polarity-switching mode with positive voltage 4.0 kV and negative voltage 4.0 kV. The mass spectrometer was coupled to an UltiMate 3000RSLC (Thermo Scientific) UHPLC system. Mobile phase A was 5 mM ammonium acetate (NH4AcO), pH 9.9, B was acetonitrile and the separation achieved on a Luna […] NH2 100 A column (150 × 2.0 mm, Phenomenex). The flow was 200 μL/min, and the gradient ran from 15% A to 95% A in 18 min, followed by an isocratic step for 9 min and re-equilibration for 7 min. Metabolites were detected and quantified as area under the curve based on retention time and accurate mass (≤ 3 p.p.m.) using the TraceFinder 3.1 (Thermo Scientific). Relative amounts of […]
structure (smiles),measurement,setting,value
COc1ccc(-c2nc([C@@H](C)Sc3nc(N)cc(N)n3)c(C)s2)cc1OCCNS(C)(=O)=O [dCKi],"Glucose labeling, Trp (C00078)",,0.00%
same,"Glucose labeling, Val (C00183)",,0.00%
same,"Relative level, PEP",,0.343
same,"Glucose labeling, Isocaproate",listed as D,0.00% (5×) and -2.22e-14%
same,"Glucose labeling, Lac",listed as D,17.43% and 30.68% and 33.28% and 15.68% and 13.00% and 14.89%
same,"Glucose labeling, Leu/Ile",listed as D,-2.22e-14% and 0.00% (4×) and 1.11e-14%
same,"Glucose labeling, Mal",listed as D,22.81% and 24.17% and 24.40% and 21.37% and 22.21% and 23.38%
same,"Glucose labeling, Met",listed as D,0.00216% and 0.00198% and 0.00236% and 0.00202% and 0.00192% and 0.00223%
same,"Glucose labeling, N-Carbamoyl-L-aspartate",listed as D,0.000983% and 0.12% (2×) and 0.00101% and 100.00% (2×)
same,"Glucose labeling, NADP+",listed as D,100.00% (4×) and 0.00% (2×)
same,"Glucose labeling, Ornithine",listed as D,0.08% (2×) and 0.12% (3×) and 0.09%
same,"Glucose labeling, Orotate",listed as D,5.20% and 3.14% and 4.02% and 100.00% and 0.12% (2×)
same,"Glucose labeling, Orotidine",listed as D,49.18% and 49.16% and 49.11% and 54.80% and 53.82% and 55.45%
same,"Glucose labeling, P-Choline",listed as D,0.00228% and 0.00166% (2×) and 0.00229% and 0.00101% and 0.00171%
same,"Glucose labeling, P-Ser",listed as D,21.30% and 20.75% and 19.61% and 16.22% and 19.77% and 14.08%
same,"Glucose labeling, Palmitate",listed as D,0.0136% and 0.0179% and 0.09% and 0.03% and 0.0457% and 0.04%
same,"Glucose labeling, Pantothenate",listed as D,0.00% (5×) and 1.11e-14%
same,"Glucose labeling, Pro",listed as D,9.90% and 11.07% and 10.77% and 9.63% and 9.83% and 9.85%
same,"Glucose labeling, Pro-OH",listed as D,0.00135% and 0.00138% and 0.000869% and 0.0017% and 0.00248% and 0.00239%
same,"Glucose labeling, R5P",listed as D,87.51% and 100.00% (5×)
same,"Glucose labeling, S7P",listed as D,85.34% and 43.01% and 49.65% and 0.26% and 34.90% and 73.97%
same,"Glucose labeling, SAM",listed as D,73.81% and 73.09% and 74.83% and 72.35% and 72.18% and 72.31%
same,"Glucose labeling, Sarc (C00213)",listed as D,0.0243% (2×) and 0.0369% (3×) and 0.0225%
same,"Glucose labeling, Ser (C00065)",listed as D,13.87% and 15.01% and 14.51% and 12.51% and 11.83% and 11.82%
same,"Glucose labeling, Shikimate (C00493)",listed as D,0.00% (5×) and 1.11e-14%
same,"Glucose labeling, Succ (C00042)",listed as D,0.0276% and 1.49% and 1.88% and 0.0331% and 0.0737% (2×)
same,"Glucose labeling, T (C00214)",listed as D,0.15% and 0.44% and 0.32% and 0.24% and 0.03% and 0.02%
same,"Glucose labeling, Thymine (C00178)",listed as D,0.02% (2×) and 0.00812% and 0.0214% and 0.0432% and 0.0317%
same,"Glucose labeling, Tyr (C00082)",listed as D,0.00% (5×) and 1.11e-14%
same,"Glucose labeling, Tyramine (C00483)",listed as D,0.00% (5×) and 1.11e-14%
same,"Glucose labeling, UDP (C00015)",listed as D,74.72% and 81.32% and 85.65% and 45.74% and 66.67% and 72.12%
same,"Glucose labeling, UDP-Glc (C00029)",listed as D,95.49% and 96.74% and 98.34% and 91.90% and 85.90% and 94.22%
same,"Glucose labeling, UDP-GlcNAc (C00043)",listed as D,91.41% and 90.20% and 90.50% and 87.89% and 87.54% and 87.94%
same,"Glucose labeling, UMP (C00105)",listed as D,79.30% and 82.81% and 83.09% and 50.51% and 65.12% and 69.81%
same,"Glucose labeling, UTP (C00075)",listed as D,90.44% and 89.69% and 89.62% and 94.73% and 88.15% and 87.27%
same,"Glucose labeling, Uracil (C00106)",listed as D,0.0737% (3×) and 0.06% and 0.05% and 0.065%
same,"Glucose labeling, Uric Acid (C00366)",listed as D,0.00% (4×) and -2.22e-14% (2×)
same,"Glucose labeling, Urocanate (C00785)",listed as D,0.00% (5×) and 1.11e-14%
same,"Glucose labeling, Vit-C (C00072)",listed as D,0.00% (4×) and 1.11e-14% (2×)
same,"Glucose labeling, Xanthine (C00385)",listed as D,0.10% (2×) and 0.12% (3×) and 0.08%
same,"Relative level, Isocaproate",listed as D,1.0 (2×) and 0.8 and 0.9 (3×)
same,"Relative level, Lac",listed as D,1.1 and 0.9 and 1.0 and 0.446 and 0.548 and 0.7
same,"Relative level, Leu/Ile",listed as D,1.0 and 1.3 and 1.5 and 0.8 (2×) and 0.9
same,"Relative level, Lys",listed as D,1.2 (2×) and 1.5 and 0.8 (2×) and 0.9
same,"Relative level, Mal",listed as D,0.8 and 1.0 and 1.4 and 0.339 and 0.53 and 0.65
same,"Relative level, Met",listed as D,1.0 and 1.3 and 1.4 and 0.8 (2×) and 0.9
same,"Relative level, N-Carbamoyl-L-aspartate",listed as D,0.7 and 1.5 and 2.9 and 0.5
same,"Relative level, NAD+",listed as D,0.8 and 1.1 (2×) and 1.3 and 0.553 and 0.7
same,"Relative level, NADP+",listed as D,1.6 and 0.273
same,"Relative level, Nicotinamide",listed as D,1.3 and 1.4 and 1.2 and 0.7 and 0.743 and 0.527
same,"Relative level, Ornithine",listed as D,1.6 and 0.9 and 1.1 and 0.8 (2×) and 1.0
same,"Relative level, Orotate",listed as D,0.468 and 0.9 and 0.8 and 0.0556 and 0.0189
same,"Relative level, Orotidine",listed as D,1.2 and 1.6 and 1.5 and 0.8 (2×) and 0.9
same,"Relative level, P-Choline",listed as D,1.0 and 1.1 and 1.4 and 0.5 (2×) and 0.65
same,"Relative level, P-Creatine",listed as D,0.8 and 0.6 and 1.6 and 2.2 and 1.2 and 1.5
same,"Relative level, P-EtA",listed as D,0.9 and 0.452 and 1.3 and 0.5 and 0.6 and 0.8
same,"Relative level, P-Ser",listed as D,1.2 and 1.3 (2×) and 0.3 and 0.317 and 0.334
same,"Relative level, Palmitate",listed as D,1.1 (4×) and 0.85 and 0.9
same,"Relative level, Pantothenate",listed as D,1.2 and 1.6 and 1.7 and 0.9 (3×)
same,"Relative level, Phe",listed as D,1.1 and 1.4 and 1.6 and 0.9 (2×) and 1.0
same,"Relative level, Pipecolate",listed as D,1.2 and 1.1 and 1.4 and 0.8 and 0.7 and 0.9
same,"Relative level, Pro",listed as D,1.0 and 1.3 (2×) and 0.8 (2×) and 0.753
same,"Relative level, Pro-OH",listed as D,1.1 and 1.2 and 1.3 and 0.8 (2×) and 0.75
same,"Relative level, Pyr",listed as D,0.171 and 2.0 and 11.3 and 1.7 and 3.4 and 3.3
same,"Relative level, R5P",listed as D,0.9 and 0.4 and 2.2 and 0.2
